Measured values published in paper PMC6979384, “Characterization of the plant homeodomain (PHD) reader family for their histone tail interactions” (Epigenetics & Chromatin, 2020).

Tests used:
Experiment in all cases: Histone peptide microarray
Type in all cases: binding, human
Conditions in all cases: sheet "Array Heatmap"
AIRE (PP) = tested on: AIRE (PP)
Procedure, shortened: (§1)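 GST-PHD reader, 0.5 μM, probed on 293-peptide histone array (single/combinatorial PTMs); optimized array protocol; signal = mean ± SD, n = 4.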

ING4 = tested on: ING4
Procedure, shortened: as §1

PHF21A = tested on: PHF21A
Procedure, shortened: as §1

KDM5A (3) = tested on: KDM5A (3)
Procedure, shortened: as §1

ING1 = tested on: ING1
Procedure, shortened: as §1

ING5 = tested on: ING5
Procedure, shortened: as §1

PHF2 = tested on: PHF2
Procedure, shortened: as §1

KDM5B (3) = tested on: KDM5B (3)
Procedure, shortened: as §1

KDM5A (1) = tested on: KDM5A (1)
Procedure, shortened: as §1

PHF23 = tested on: PHF23
Procedure, shortened: as §1

TRIM66 (PB) = tested on: TRIM66 (PB)
Procedure, shortened: as §1

MLL5 = tested on: MLL5
Procedure, shortened: as §1

CHD4 (PPCC) = tested on: CHD4 (PPCC)
Procedure, shortened: as §1

PHF8 = tested on: PHF8
Procedure, shortened: as §1

PHRF1 (RP) = tested on: PHRF1 (RP)
Procedure, shortened: as §1

KDM4C (TTP) = tested on: KDM4C (TTP)
Procedure, shortened: as §1

BPTF (PB) = tested on: BPTF (PB)
Procedure, shortened: as §1

KDM7A = tested on: KDM7A
Procedure, shortened: as §1

CHD5 (PCC) = tested on: CHD5 (PCC)
Procedure, shortened: as §1

KDM5B (1) = tested on: KDM5B (1)
Procedure, shortened: as §1

MORC3 (CW) = tested on: MORC3 (CW)
Procedure, shortened: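 GST-tagged PHD finger readers were expressed, purified and applied at 0.5 μM to a microarray of 293 synthetic histone peptides carrying single or combinatorial PTMs, using an optimized protocol. Binding signals are averages with standard deviation from 4 replicates.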

SP140L = tested on: SP140L
Procedure, shortened: as §1

ING3 = tested on: ING3
Procedure, shortened: as §1

TAF3 = tested on: TAF3
Procedure, shortened: as §1

DPF2 (PPC2W2) = tested on: DPF2 (PPC2W2)
Procedure, shortened: as §1

DIDO1 = tested on: DIDO1
Procedure, shortened: as §1

CHD5 (PPCC) = tested on: CHD5 (PPCC)
Procedure, shortened: as §1

RAG2 = tested on: RAG2
Procedure, shortened: as §1

ING2 = tested on: ING2
Procedure, shortened: as §1

PHF13 = tested on: PHF13
Procedure, shortened: as §1

BAZ2B = tested on: BAZ2B
Procedure, shortened: as §1

[1] = GST-tagged AIRE (PP), arrays performed twice, total replicate number n = 4
[2] = GST-tagged ING4, arrays performed twice, total replicate number n = 4
[3] = GST-tagged PHF21A, arrays performed twice, total replicate number n = 4
[4] = GST-tagged KDM5A (3), arrays performed twice, total replicate number n = 4
[5] = GST-tagged ING1, arrays performed twice, total replicate number n = 4
[6] = GST-tagged ING5, arrays performed twice, total replicate number n = 4
[7] = GST-tagged PHF2, arrays performed twice, total replicate number n = 4
[8] = GST-tagged KDM5B (3), arrays performed twice, total replicate number n = 4
[9] = GST-tagged KDM5A (1), arrays performed twice, total replicate number n = 4
[10] = GST-tagged PHF23, arrays performed twice, total replicate number n = 4
[11] = GST-tagged TRIM66 (PB), arrays performed twice, total replicate number n = 4
[12] = GST-tagged MLL5, arrays performed twice, total replicate number n = 4
[13] = GST-tagged CHD4 (PPCC), arrays performed twice, total replicate number n = 4
[14] = GST-tagged PHF8, arrays performed twice, total replicate number n = 4
[15] = GST-tagged PHRF1 (RP), arrays performed twice, total replicate number n = 4
[16] = GST-tagged KDM4C (TTP), arrays performed twice, total replicate number n = 4
[17] = GST-tagged BPTF (PB), arrays performed twice, total replicate number n = 4
[18] = GST-tagged KDM7A, arrays performed twice, total replicate number n = 4
[19] = GST-tagged CHD5 (PCC), arrays performed twice, total replicate number n = 4
[20] = GST-tagged KDM5B (1), arrays performed twice, total replicate number n = 4
[21] = GST-tagged MORC3 (CW), arrays performed twice, total replicate number n = 4
[22] = GST-tagged SP140L, arrays performed twice, total replicate number n = 4
[23] = GST-tagged ING3, arrays performed twice, total replicate number n = 4
[24] = GST-tagged TAF3, arrays performed twice, total replicate number n = 4
[25] = GST-tagged DPF2 (PPC2W2), arrays performed twice, total replicate number n = 4
[26] = GST-tagged DIDO1, arrays performed twice, total replicate number n = 4
[27] = GST-tagged CHD5 (PPCC), arrays performed twice, total replicate number n = 4
[28] = GST-tagged RAG2, arrays performed twice, total replicate number n = 4
[29] = GST-tagged ING2, arrays performed twice, total replicate number n = 4
[30] = GST-tagged PHF13, arrays performed twice, total replicate number n = 4
[31] = GST-tagged BAZ2B, arrays performed twice, total replicate number n = 4
[32] = GST-tagged reader, histone peptide array, total n = 4

## H3R8me2s + K9me2: H3 1-20
AIRE (PP); [1]
  Array Heatmap signal, AIRE (PP): 0.5603
ING4; [2]
  Array Heatmap signal, ING4: 0.4841
PHF21A; [3]
  Array Heatmap signal, PHF21A: 0.4814
KDM5A (3); [4]
  Array Heatmap signal, KDM5A (3): 0.4844
ING1; [5]
  Array Heatmap signal, ING1: 0.5182
ING5; [6]
  Array Heatmap signal, ING5: 0.3835
PHF2; [7]
  Array Heatmap signal, PHF2: 0.4235
KDM5B (3); [8]
  Array Heatmap signal, KDM5B (3): 0.5187
KDM5A (1); [9]
  Array Heatmap signal, KDM5A (1): 0.5094
PHF23; [10]
  Array Heatmap signal, PHF23: 0.5163
TRIM66 (PB); [11]
  Array Heatmap signal, TRIM66 (PB): 0.5924
MLL5; [12]
  Array Heatmap signal, MLL5: 0.5188
CHD4 (PPCC); [13]
  Array Heatmap signal, CHD4 (PPCC): 0.5754
PHF8; [14]
  Array Heatmap signal, PHF8: 0.3655
PHRF1 (RP); [15]
  Array Heatmap signal, PHRF1 (RP): 0.5504
KDM4C (TTP); [16]
  Array Heatmap signal, KDM4C (TTP): 0.5379
BPTF (PB); [17]
  Array Heatmap signal, BPTF (PB): 0.3651
KDM7A; [18]
  Array Heatmap signal, KDM7A: 0.4179
CHD5 (PCC); [19]
  Array Heatmap signal, CHD5 (PCC): 0.7949
KDM5B (1); [20]
  Array Heatmap signal, KDM5B (1): 0.6818
MORC3 (CW); [21]
  Array Heatmap signal, MORC3 (CW): 0.398
SP140L; [22]
  Array Heatmap signal, SP140L: 0.3733
ING3; [23]
  Array Heatmap signal, ING3: 0.4823
TAF3; [24]
  Array Heatmap signal, TAF3: 0.2872
DPF2 (PPC2W2); [25]
  Array Heatmap signal, DPF2 (PPC2W2): 0.6724
DIDO1; [26]
  Array Heatmap signal, DIDO1: 0.6168
CHD5 (PPCC); [27]
  Array Heatmap signal, CHD5 (PPCC): 0.5952
RAG2; [28]
  Array Heatmap signal, RAG2: 0.2593
ING2; [29]
  Array Heatmap signal, ING2: 0.6129
PHF13; [30]
  Array Heatmap signal, PHF13: 0.6345
BAZ2B; [31]
  Array Heatmap signal, BAZ2B: 0.5059

## H3R8me2s + K9me3: H3 1-20
AIRE (PP); [1]
  Array Heatmap signal, AIRE (PP): 0.6619
ING4; [2]
  Array Heatmap signal, ING4: 0.5372
PHF21A; [3]
  Array Heatmap signal, PHF21A: 0.5424
KDM5A (3); [4]
  Array Heatmap signal, KDM5A (3): 0.5266
ING1; [5]
  Array Heatmap signal, ING1: 0.6071
ING5; [6]
  Array Heatmap signal, ING5: 0.4272
PHF2; [7]
  Array Heatmap signal, PHF2: 0.5404
KDM5B (3); [8]
  Array Heatmap signal, KDM5B (3): 0.5509
KDM5A (1); [9]
  Array Heatmap signal, KDM5A (1): 0.5383
PHF23; [10]
  Array Heatmap signal, PHF23: 0.594
TRIM66 (PB); [11]
  Array Heatmap signal, TRIM66 (PB): 0.7482
MLL5; [12]
  Array Heatmap signal, MLL5: 0.5932
CHD4 (PPCC); [13]
  Array Heatmap signal, CHD4 (PPCC): 0.6275
PHF8; [14]
  Array Heatmap signal, PHF8: 0.4276
PHRF1 (RP); [15]
  Array Heatmap signal, PHRF1 (RP): 0.5937
KDM4C (TTP); [16]
  Array Heatmap signal, KDM4C (TTP): 0.5668
BPTF (PB); [17]
  Array Heatmap signal, BPTF (PB): 0.4039
KDM7A; [18]
  Array Heatmap signal, KDM7A: 0.3933
CHD5 (PCC); [19]
  Array Heatmap signal, CHD5 (PCC): 0.8709
KDM5B (1); [20]
  Array Heatmap signal, KDM5B (1): 0.6697
MORC3 (CW); [21]
  Array Heatmap signal, MORC3 (CW): 0.4796
SP140L; [22]
  Array Heatmap signal, SP140L: 0.3989
ING3; [23]
  Array Heatmap signal, ING3: 0.5417
TAF3; [24]
  Array Heatmap signal, TAF3: 0.3134
DPF2 (PPC2W2); [25]
  Array Heatmap signal, DPF2 (PPC2W2): 0.784
DIDO1; [26]
  Array Heatmap signal, DIDO1: 0.7617
CHD5 (PPCC); [27]
  Array Heatmap signal, CHD5 (PPCC): 0.6469
RAG2; [28]
  Array Heatmap signal, RAG2: 0.2769
ING2; [29]
  Array Heatmap signal, ING2: 0.6159
PHF13; [30]
  Array Heatmap signal, PHF13: 0.7048
BAZ2B; [31]
  Array Heatmap signal, BAZ2B: 0.5401

## H3R17me1: H3 1-20 [Peptide H3R17me1]
AIRE (PP); [32]
  Array Heatmap signal, AIRE (PP): 0.4567
ING4; [32]
  Array Heatmap signal, ING4: 0.4637
PHF21A; [32]
  Array Heatmap signal, PHF21A: 0.4738
KDM5A (3); [32]
  Array Heatmap signal, KDM5A (3): 0.5587
ING1; [32]
  Array Heatmap signal, ING1: 0.5598
ING5; [32]
  Array Heatmap signal, ING5: 0.3567
PHF2; [32]
  Array Heatmap signal, PHF2: 0.5204
KDM5B (3); [32]
  Array Heatmap signal, KDM5B (3): 0.5296
KDM5A (1); [32]
  Array Heatmap signal, KDM5A (1): 0.4728
PHF23; [32]
  Array Heatmap signal, PHF23: 0.5635
TRIM66 (PB); [32]
  Array Heatmap signal, TRIM66 (PB): 0.643
MLL5; [32]
  Array Heatmap signal, MLL5: 0.5956
CHD4 (PPCC); [32]
  Array Heatmap signal, CHD4 (PPCC): 0.598
PHF8; [32]
  Array Heatmap signal, PHF8: 0.3543
PHRF1 (RP); [32]
  Array Heatmap signal, PHRF1 (RP): 0.8251
KDM4C (TTP); [32]
  Array Heatmap signal, KDM4C (TTP): 0.4745
BPTF (PB); [32]
  Array Heatmap signal, BPTF (PB): 0.345
KDM7A; [32]
  Array Heatmap signal, KDM7A: 0.3476
CHD5 (PCC); [32]
  Array Heatmap signal, CHD5 (PCC): 0.834
KDM5B (1); [32]
  Array Heatmap signal, KDM5B (1): 0.6928
MORC3 (CW); [32]
  Array Heatmap signal, MORC3 (CW): 0.4904
SP140L; [32]
  Array Heatmap signal, SP140L: 0.359
ING3; [32]
  Array Heatmap signal, ING3: 0.4855
TAF3; [32]
  Array Heatmap signal, TAF3: 0.2696
DPF2 (PPC2W2); [32]
  Array Heatmap signal, DPF2 (PPC2W2): 0.7016
DIDO1; [32]
  Array Heatmap signal, DIDO1: 0.721
CHD5 (PPCC); [32]
  Array Heatmap signal, CHD5 (PPCC): 0.5588
RAG2; [32]
  Array Heatmap signal, RAG2: 0.268
ING2; [32]
  Array Heatmap signal, ING2: 0.6036
PHF13; [32]
  Array Heatmap signal, PHF13: 0.6124
BAZ2B; [32]
  Array Heatmap signal, BAZ2B: 0.4823
